Measured values as given in patent US12344852B2, “Control of phenotype in plants” (GREENVENUS, LLC, priority 2016, dated 2025).

How the values were obtained:
[1] = tested on: EcR-based gene switch (IP:GFP, ID38) in transgenic Arabidopsis leaf samples; assay: Ligand-induced GFP expression in leaf samples of IP:GFP (ID38) transgenic plants; assay type: cell-based; details: leaf samples of IP:GFP plants on media containing ligand, 24 hr; not induced in wt control
From the text: Transform wild type Arabidopsis to introduce inducible GFP reporter: DNA construct ID38, which is shown diagrammatically in FIG. 1A, may be used to transform wild type (wt) Arabidopsis. […]
GFP gene will not be expressed until methoxyfenozide (activator ligand—AL) is provided to mobilize the activator proteins for binding to the GAL4-RE and switching on the IP. […] Since GFP expression can be conveniently monitored in live plants under a fluorescence microscope, the transgenic Arabidopsis can be used to study the dosage, timing, and half life time of the ligand application. […]
Briefly, the DNA constructs shown in FIG. 1 were built following standard molecular cloning procedures and transformed into disarmed Agrobacterium tumefaciens strain AGL1. […] Selected transgenic plants were analyzed by quantitative PCR (qPCR) and PCR to check transgene copy numbers and transgene intactness. […]

[2] = tested on: IP:ChsA RNAi (ID164) transgenic Petunia plants; assay: Flower color change in IP:ChsA RNAi (ID164) transgenic petunia after ligand spray; assay type: in vivo, Petunia hybrida variety V26; details: for time to change flower color from dark purple to variegate: one application
From the text: DNA construct ID164 (LB-IP:ChsA RNAi+35S:AP+CsVMV:NptII-RB) (SEQ ID NO:55) containing both the inducible promoter (IP) composed of 5 GAL4 regulatory elements (GAL4-RE) placed upstream of the minimal CaMV-35S promoter and the multidomain activator (AP) protein gene (VGE(E68V/V184I/Y204E) under the control of CaMV-35S promoter is shown in FIG. 20B. ID164 (SEQ ID NO:55) was used to transform wild type (wt) Petunia hybrid variety V26. The chalcone synthase hairpin transcript will not be express until the activator ligand (methoxyfenozide; Mtf) is provided to mobilize the activator proteins for binding to the GAL4-RE and switching the inducible promoter FS on. Transgene copy number was assessed for 56 TO transgenic plants by Tagman assay. 84% were low copies (two copies and below), 12.5% were high copy (three copies and above) and, few plants were nulls. Before ligand application most (98%) plants were flowering as dark purple color. Plants were divided in five groups, each group being treated differently. Treatment occurred every other day at a rate of 30 ml per plant. Treatment is sprayed on plants (leaves and flowers). Water is used as a mock treatment while INTREPID® 2F insecticide (Mtf being the active ingredient) is used as a ligand treatment. Group one was mock treated. Group two was treated with 2.5 uM Mtf in INTREPID® 2F insecticide form. Group three was treated with 1 mM Mtf (highest recommended dose on ornamental plants for INTREPID® 2F). Group four was treated with 2 mM Mtf and group five treated with 5 mM Mtf. […] When increasing the ligand concentration to 1 mM, change in flower color, dark purple to variegate, was observed faster (7 days post-treatment) on 50% of plants as shown in FIG. 23. With 2 mM and 5 mM ligand, one application (2 days post-treatment) was sufficient to change flower color from dark purple to variegate as shown in FIG. 24 and FIG. 25, respectively. Decrease in ChsA gene expression level in treated plants compared to their higher level before ligand treatment correlates with their change in flower color as shown in FIG. 21.

[3] = tested on: Botrytis cinerea; assay: Ligand inducible disease resistance screening of detached petunia leaves; assay type: in vivo
Procedure: Botrytis cinerea isolation and inoculation. The plant pathogen was isolated from diseased strawberries displaying typical symptomology. A single spore colony was isolated using standard plant pathology methodologies and the ITSI—5.8S rDNA—ITSII locus was amplified and sequenced to validate its identity. The isolate used is 100% identical to more than 20 previously reported B. cinerea isolates in Genbank. For plant inoculation B. cinerea was grown on V8 Agar media under fluorescent light for 2 weeks until the typical grey mass of aerial spores was visible. A section of the colony was placed into 10 mL of sterile DI water and vortexed vigorously to dislodge spores. The resulting solution was filtered through a 70 micron mesh to yield a homogenous spore solution free of mycelia and agar media. The spore solution was spun down and washed 3× in sterile DI water and quantified using a hemocytometer. The solution was diluted in sterile DI water to a final concentration of 200,000 spores/ml. For petunia inoculations, detached leaves were wounded with a sterile forceps (approximately 0.5 mm abrasion) and the wounded site was inoculated with 10 μL of spore solution (2,000 spores/inoculation site). Three leaves/treatment and three wound sites/leaf were inoculated with spore solution for each assay. […]

COc1cccc(C(=O)NN(C(=O)c2cc(C)cc(C)c2)C(C)(C)C)c1C [methoxyfenozide, 3-methoxy-2-methylbenzoic acid 2-(3,5-dimethylbenzoyl)-2-(1,1-dimethylethyl)hydrazide]
concentration at which GFP expression was induced [1]: ≤ 16 nM | time to flower color change from dark purple to light purple ([2]; 2.5 uM): 10 days post-treatment | plants showing flower color change from dark purple to light purple ([2]; 2.5 uM, sprayed every other day, 30 ml per plant, INTREPID 2F form): 50% | plants showing change in flower color, dark purple to variegate ([2]; 1 mM): 50% | time to change in flower color, dark purple to variegate ([2]; 1 mM): 7 days post-treatment | time to change flower color from dark purple to variegate ([2]; 2 mM): 2 days post-treatment | time to change flower color from dark purple to variegate ([2]; 5 mM): 2 days post-treatment | disease resistance of Switch-DCL1/DCL2/GUS hairpin line ([3]; leaves on 50 uM in 1% phytoagar, inoculated after 3 days, read 7 days after pathogen inoculation): ligand induced disease resistance | disease resistance of constitutive DCL-25 (+ control) and non-specific dsRNA line (− control) ([3]; presence or absence of 50 uM ligand): no change in disease resistance
